According to ChEMBL document CHEMBL3091433, “Structure-based design of substituted hexafluoroisopropanol-arylsulfonamides as modulators of RORc” (Bioorg Med Chem Lett, 2013):

Assays:
[1] = target: T1, Nuclear receptor ROR-gamma (Homo sapiens, UniProt P51449)
T1 sequence (P51449 whole entry): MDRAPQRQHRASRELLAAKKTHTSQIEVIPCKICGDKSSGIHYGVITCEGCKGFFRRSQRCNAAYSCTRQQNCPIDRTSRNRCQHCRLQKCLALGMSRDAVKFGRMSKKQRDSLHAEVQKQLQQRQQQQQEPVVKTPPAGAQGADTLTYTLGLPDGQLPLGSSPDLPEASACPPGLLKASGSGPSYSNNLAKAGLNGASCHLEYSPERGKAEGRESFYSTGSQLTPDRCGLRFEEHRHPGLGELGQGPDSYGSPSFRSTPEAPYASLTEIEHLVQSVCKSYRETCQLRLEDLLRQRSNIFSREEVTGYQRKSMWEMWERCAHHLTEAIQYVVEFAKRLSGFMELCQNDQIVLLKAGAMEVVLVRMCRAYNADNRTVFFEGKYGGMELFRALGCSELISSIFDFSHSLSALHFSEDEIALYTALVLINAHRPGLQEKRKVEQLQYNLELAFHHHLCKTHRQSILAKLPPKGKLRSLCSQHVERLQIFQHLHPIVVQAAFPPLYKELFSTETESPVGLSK
Description: Displacement of [3H2]-25-hydroxycholesterol from N-terminal 6xHis-tagged human RORc ligand binding domain (241 to 486) expressed in bacterial expression system after 3 hrs by scintillation counting analysis

[2] = target: T1, Nuclear receptor ROR-gamma; remark: listed apart in the source
Description: Inverse agonist activity at N-terminal 6xHis-tagged human RORc ligand binding domain (241 to 486) expressed in bacterial expression system assessed as inhibition of SRC1 co-activator peptide recruitment after 3 hrs by TR-FRET analysis

PBMC [3] = experiment: Inhibition of IFNgamma production in human PBMC after 48 hrs by Sandwich ELISA
PBMC [4] = experiment: Cytotoxicity against human PBMC assessed as effect on cell physiology after 48 hrs by CellTiter-Glo assay
PBMC [5] = experiment: Antiinflammatory activity in human PBMC assessed as inhibition of IL-17 production after 48 hrs by Sandwich ELISA relative to control; assay type: functional
PBMC [6] = experiment: cells; details: Homo sapiens, 48 h

IC50 [1] [nM] | EC50 [2] [nM] | SMILES | further results
520 | > 2000 | O=S(=O)(Cc1ccccc1)N(CC(F)(F)F)c1ccc(C(O)(C(F)(F)F)C(F)(F)F)cc1 | 
900 | 9000 | COC(c1ccc(N(CC(F)(F)F)S(=O)(=O)c2ccccc2)cc1)(C(F)(F)F)C(F)(F)F | 
748 | 1000 | O=S(=O)(c1cccnc1)N(CC(F)(F)F)c1ccc(C(O)(C(F)(F)F)C(F)(F)F)cc1 | 
190 | 100 | N#Cc1cccc(S(=O)(=O)N(CC(F)(F)F)c2ccc(C(O)(C(F)(F)F)C(F)(F)F)cc2)c1 | 
2000 | 4000 | O=C(c1ccccc1)N(CC(F)(F)F)c1ccc(C(O)(C(F)(F)F)C(F)(F)F)cc1 | 
4000 | 1000 | O=S(=O)(c1ccccc1)N(CCO)c1ccc(C(O)(C(F)(F)F)C(F)(F)F)cc1 | 
5000 |  | O=S(=O)(C1CC1)N(CC(F)(F)F)c1ccc(C(O)(C(F)(F)F)C(F)(F)F)cc1 | 
3000 | > 10000 | COCCN(c1ccc(C(O)(C(F)(F)F)C(F)(F)F)cc1)S(=O)(=O)c1ccccc1 | 
520 | 920 | N#Cc1ccccc1S(=O)(=O)N(CC(F)(F)F)c1ccc(C(O)(C(F)(F)F)C(F)(F)F)cc1 | 
519 | 4000 | O=S(=O)(c1ccccc1)N(CCC(F)(F)F)c1ccc(C(O)(C(F)(F)F)C(F)(F)F)cc1 | 
> 10000 | > 10000 | O=C(O)CCN(c1ccc(C(O)(C(F)(F)F)C(F)(F)F)cc1)S(=O)(=O)c1ccccc1 | 
51 | 20 | Cc1ccc(S(=O)(=O)N(CC(F)(F)F)c2ccc(C(O)(C(F)(F)F)C(F)(F)F)cc2)cc1 | 

Second part, the compound before the results:

SMILES | IC50 [1] [nM] | EC50 [2] [nM] | further results
CC(=O)Nc1nc(C)c(S(=O)(=O)Nc2ccc(C(O)(C(F)(F)F)C(F)(F)F)cc2)s1 | 2000 | 911 | 
O=C(Nc1ccc(C(O)(C(F)(F)F)C(F)(F)F)cc1)c1ccccc1 | > 10000 | > 10000 | 
O=S(=O)(c1ccccc1)N(CC(F)(F)F)c1ccc(CO)cc1 | > 10000 | > 10000 | 
CC(=O)NCCN(c1ccc(C(O)(C(F)(F)F)C(F)(F)F)cc1)S(=O)(=O)c1ccccc1 | > 10000 | > 10000 | 
O=S(=O)(c1ccccc1)N(CC(F)(F)F)c1ccc(C(O)(C(F)(F)F)C(F)(F)F)cc1 [T091317] |  |  | EC50 (PBMC [3]): > 20000 nM; EC50 (PBMC [4]): > 20000 nM; Imax (PBMC [5]): 81%; EC50 (PBMC [6]): 3000 nM
CS(=O)(=O)CCN(c1ccc(C(O)(C(F)(F)F)C(F)(F)F)cc1)S(=O)(=O)c1ccccc1 | > 10000 | > 10000 | 
O=S(=O)(c1ccccc1)N(Cc1ccccc1)c1ccc(C(O)(C(F)(F)F)C(F)(F)F)cc1 | 467 | 8000 | 
CCN(c1cccc(C(O)(C(F)(F)F)C(F)(F)F)c1)S(=O)(=O)c1ccccc1 | 329 | 900 | 
NC(=O)c1ccc(N(CC(F)(F)F)S(=O)(=O)c2ccccc2)cc1 | > 10000 | > 10000 | 
NS(=O)(=O)c1ccc(N(CC(F)(F)F)S(=O)(=O)c2ccccc2)cc1 | 9000 | > 10000 | 
O=C(O)c1ccc(N(CC(F)(F)F)S(=O)(=O)c2ccccc2)cc1 | > 10000 | > 10000 | 
O=S(=O)(c1ccccc1)N1CCc2cc(C(O)(C(F)(F)F)C(F)(F)F)ccc21 | 883 | 5000 | 
O=S(=O)(Nc1ccc(C(O)(C(F)(F)F)C(F)(F)F)cc1)c1ccccc1 | > 10000 |  | 
O=C(Nc1ccc(C(O)(C(F)(F)F)C(F)(F)F)cc1)c1ccc(C(F)(F)F)cc1 | > 10000 | > 10000 | 
